The kinase profiling compilation of Christmann-Franck et al. (2016)

Experiments:
Assay in all cases: radiometric filter-binding kinase assay
PIM1 (human) = PIM1 (human) (UniProt P11309)
MELK (human) = MELK (human) (UniProt Q14680)
FLT1 (human) = FLT1 (human) (UniProt P17948)
CHEK2 (human) = CHEK2 (human) (UniProt O96017)
[1] = test system: SGK1 (human), O00141 [S422D]; details: compound 10.0 µM
IKBKE (human) = IKBKE (human) (UniProt Q14164)
PIM3 (human) = PIM3 (human) (UniProt Q86V86)
MAP3K7 TAB1 (human) = MAP3K7 TAB1 (human) (UniProt Q15750+O43318)
MAPKAPK2 (human) = MAPKAPK2 (human) (UniProt P49137)
MYLK (human) = MYLK (human) (UniProt Q15746)
EPHB4 (human) = EPHB4 (human) (UniProt P54760)
TAOK1 (human) = TAOK1 (human) (UniProt Q7L7X3)
IRAK4 (human) = IRAK4 (human) (UniProt Q9NWZ3)
Chain of IRAK4 (human) (Q9NWZ3 whole entry, looked up): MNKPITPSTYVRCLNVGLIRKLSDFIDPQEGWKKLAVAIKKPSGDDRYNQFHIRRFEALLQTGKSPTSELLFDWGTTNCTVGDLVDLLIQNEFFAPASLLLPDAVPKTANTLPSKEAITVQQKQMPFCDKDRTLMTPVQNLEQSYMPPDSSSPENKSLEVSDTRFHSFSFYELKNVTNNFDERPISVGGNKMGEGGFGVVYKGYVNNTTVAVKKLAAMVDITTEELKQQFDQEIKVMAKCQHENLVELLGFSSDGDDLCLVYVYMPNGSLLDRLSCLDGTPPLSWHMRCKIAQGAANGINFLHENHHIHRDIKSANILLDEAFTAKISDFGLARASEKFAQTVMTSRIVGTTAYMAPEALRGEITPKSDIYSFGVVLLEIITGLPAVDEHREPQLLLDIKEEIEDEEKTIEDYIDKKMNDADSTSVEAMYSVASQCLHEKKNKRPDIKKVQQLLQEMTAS

MAPK12 (human) = MAPK12 (human) (UniProt P53778)
Chain of MAPK12 (human) (P53778 whole entry, looked up): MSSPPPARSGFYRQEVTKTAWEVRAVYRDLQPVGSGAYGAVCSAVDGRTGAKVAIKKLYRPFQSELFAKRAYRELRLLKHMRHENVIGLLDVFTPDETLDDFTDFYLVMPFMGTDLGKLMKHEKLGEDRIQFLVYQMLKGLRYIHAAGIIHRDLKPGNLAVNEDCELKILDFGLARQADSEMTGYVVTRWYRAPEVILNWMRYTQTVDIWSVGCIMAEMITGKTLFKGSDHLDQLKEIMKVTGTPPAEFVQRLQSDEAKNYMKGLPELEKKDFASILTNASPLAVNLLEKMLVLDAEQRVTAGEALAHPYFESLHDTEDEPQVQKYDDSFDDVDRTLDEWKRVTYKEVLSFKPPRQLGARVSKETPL

EPHB2 (human) = EPHB2 (human) (UniProt P29323); details: compound 0.1 µM
MAPK14 (human) = MAPK14 (human) (UniProt Q16539)
[2] = test system: RPS6KB1 (human), P23443 [T412E]
HIPK2 (human) = HIPK2 (human) (UniProt Q9H2X6)
NEK2 (human) = NEK2 (human) (UniProt P51955)
Chain of NEK2 (human) (P51955 whole entry, looked up): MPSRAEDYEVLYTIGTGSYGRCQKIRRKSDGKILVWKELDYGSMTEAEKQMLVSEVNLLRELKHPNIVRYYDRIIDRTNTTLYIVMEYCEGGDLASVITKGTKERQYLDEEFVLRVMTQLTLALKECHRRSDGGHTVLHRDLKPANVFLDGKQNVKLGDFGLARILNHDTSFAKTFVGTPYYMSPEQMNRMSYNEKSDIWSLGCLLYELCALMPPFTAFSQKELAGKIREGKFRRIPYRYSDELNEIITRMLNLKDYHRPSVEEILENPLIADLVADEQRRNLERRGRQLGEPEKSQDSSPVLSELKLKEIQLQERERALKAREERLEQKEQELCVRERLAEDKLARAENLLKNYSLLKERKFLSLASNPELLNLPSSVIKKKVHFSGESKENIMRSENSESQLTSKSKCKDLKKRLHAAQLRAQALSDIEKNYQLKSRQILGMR

MARK2 (human) = MARK2 (human) (UniProt Q7KZI7)
MARK1 (human) = MARK1 (human) (UniProt Q9P0L2)
STK3 (human) = STK3 (human) (UniProt Q13188)
Chain of STK3 (human) (Q13188 whole entry, looked up): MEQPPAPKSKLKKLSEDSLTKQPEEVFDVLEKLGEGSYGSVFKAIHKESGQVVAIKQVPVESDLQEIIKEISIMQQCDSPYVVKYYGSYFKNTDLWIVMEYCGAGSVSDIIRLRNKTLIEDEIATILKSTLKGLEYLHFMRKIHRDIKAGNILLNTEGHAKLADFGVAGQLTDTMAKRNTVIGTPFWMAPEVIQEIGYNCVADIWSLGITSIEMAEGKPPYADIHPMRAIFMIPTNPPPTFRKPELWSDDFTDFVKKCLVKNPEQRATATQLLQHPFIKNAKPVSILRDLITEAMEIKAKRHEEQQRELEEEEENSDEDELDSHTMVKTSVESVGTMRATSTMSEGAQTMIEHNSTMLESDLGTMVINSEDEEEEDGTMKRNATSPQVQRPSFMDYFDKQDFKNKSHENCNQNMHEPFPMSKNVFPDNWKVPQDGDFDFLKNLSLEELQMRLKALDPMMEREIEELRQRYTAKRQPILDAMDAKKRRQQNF

RPS6KA1 KD1 KD2 (human) = RPS6KA1 KD1 KD2 (human) (UniProt Q15418)
EPHA2 (human) = EPHA2 (human) (UniProt P29317)
DAPK1 (human) = DAPK1 (human) (UniProt P53355)
EPHB1 (human) = EPHB1 (human) (UniProt P54762)
MAPKAPK5 (human) = MAPKAPK5 (human) (UniProt Q8IW41)
DYRK2 (human) = DYRK2 (human) (UniProt Q92630)
Chain of DYRK2 (human) (Q92630 whole entry, looked up): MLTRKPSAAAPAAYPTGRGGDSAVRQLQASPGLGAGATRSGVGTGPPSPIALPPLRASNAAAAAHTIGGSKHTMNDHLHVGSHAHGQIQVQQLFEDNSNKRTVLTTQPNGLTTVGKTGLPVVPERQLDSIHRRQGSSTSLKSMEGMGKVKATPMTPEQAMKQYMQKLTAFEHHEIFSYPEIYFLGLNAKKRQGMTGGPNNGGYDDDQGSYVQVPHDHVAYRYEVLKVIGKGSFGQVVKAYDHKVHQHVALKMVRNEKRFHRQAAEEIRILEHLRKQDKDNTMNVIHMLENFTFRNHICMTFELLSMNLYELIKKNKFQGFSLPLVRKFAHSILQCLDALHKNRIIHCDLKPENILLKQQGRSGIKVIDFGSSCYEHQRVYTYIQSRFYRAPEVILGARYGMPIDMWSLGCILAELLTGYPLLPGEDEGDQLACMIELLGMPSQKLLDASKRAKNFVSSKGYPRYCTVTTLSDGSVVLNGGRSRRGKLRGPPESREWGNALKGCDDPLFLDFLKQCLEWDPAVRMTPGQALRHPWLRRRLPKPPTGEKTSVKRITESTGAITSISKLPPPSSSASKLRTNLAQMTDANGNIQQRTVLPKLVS

DYRK3 (human) = DYRK3 (human) (UniProt O43781)
PKN2 (human) = PKN2 (human) (UniProt Q16513)
PRKCA (human) = PRKCA (human) (UniProt P17252)
TTK (human) = TTK (human) (UniProt P33981)
ROCK2 (rat) = details: accession and sequence are those of the human protein
CLK2 (human) = CLK2 (human) (UniProt P49760)
GCK (human) = GCK (human) (UniProt Q12851)

Chain of MELK (human) (Q14680 whole entry, looked up): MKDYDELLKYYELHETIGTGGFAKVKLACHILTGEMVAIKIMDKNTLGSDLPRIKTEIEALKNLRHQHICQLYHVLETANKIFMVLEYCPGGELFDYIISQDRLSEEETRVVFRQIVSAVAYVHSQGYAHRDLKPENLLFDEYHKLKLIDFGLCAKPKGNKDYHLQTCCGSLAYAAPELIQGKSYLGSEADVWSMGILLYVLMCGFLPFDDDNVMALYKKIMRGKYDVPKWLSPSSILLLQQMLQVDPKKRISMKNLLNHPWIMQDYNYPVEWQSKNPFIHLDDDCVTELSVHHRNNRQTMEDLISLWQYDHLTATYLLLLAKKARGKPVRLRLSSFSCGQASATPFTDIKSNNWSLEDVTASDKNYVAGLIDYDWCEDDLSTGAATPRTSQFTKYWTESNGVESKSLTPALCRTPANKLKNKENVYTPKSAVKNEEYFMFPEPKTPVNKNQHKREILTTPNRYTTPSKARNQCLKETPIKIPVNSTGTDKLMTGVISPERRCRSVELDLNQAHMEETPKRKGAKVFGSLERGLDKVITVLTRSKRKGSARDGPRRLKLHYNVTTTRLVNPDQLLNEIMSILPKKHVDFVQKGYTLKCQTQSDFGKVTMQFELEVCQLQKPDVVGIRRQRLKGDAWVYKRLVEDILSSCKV
Chain of FLT1 (human) (P17948 whole entry, looked up): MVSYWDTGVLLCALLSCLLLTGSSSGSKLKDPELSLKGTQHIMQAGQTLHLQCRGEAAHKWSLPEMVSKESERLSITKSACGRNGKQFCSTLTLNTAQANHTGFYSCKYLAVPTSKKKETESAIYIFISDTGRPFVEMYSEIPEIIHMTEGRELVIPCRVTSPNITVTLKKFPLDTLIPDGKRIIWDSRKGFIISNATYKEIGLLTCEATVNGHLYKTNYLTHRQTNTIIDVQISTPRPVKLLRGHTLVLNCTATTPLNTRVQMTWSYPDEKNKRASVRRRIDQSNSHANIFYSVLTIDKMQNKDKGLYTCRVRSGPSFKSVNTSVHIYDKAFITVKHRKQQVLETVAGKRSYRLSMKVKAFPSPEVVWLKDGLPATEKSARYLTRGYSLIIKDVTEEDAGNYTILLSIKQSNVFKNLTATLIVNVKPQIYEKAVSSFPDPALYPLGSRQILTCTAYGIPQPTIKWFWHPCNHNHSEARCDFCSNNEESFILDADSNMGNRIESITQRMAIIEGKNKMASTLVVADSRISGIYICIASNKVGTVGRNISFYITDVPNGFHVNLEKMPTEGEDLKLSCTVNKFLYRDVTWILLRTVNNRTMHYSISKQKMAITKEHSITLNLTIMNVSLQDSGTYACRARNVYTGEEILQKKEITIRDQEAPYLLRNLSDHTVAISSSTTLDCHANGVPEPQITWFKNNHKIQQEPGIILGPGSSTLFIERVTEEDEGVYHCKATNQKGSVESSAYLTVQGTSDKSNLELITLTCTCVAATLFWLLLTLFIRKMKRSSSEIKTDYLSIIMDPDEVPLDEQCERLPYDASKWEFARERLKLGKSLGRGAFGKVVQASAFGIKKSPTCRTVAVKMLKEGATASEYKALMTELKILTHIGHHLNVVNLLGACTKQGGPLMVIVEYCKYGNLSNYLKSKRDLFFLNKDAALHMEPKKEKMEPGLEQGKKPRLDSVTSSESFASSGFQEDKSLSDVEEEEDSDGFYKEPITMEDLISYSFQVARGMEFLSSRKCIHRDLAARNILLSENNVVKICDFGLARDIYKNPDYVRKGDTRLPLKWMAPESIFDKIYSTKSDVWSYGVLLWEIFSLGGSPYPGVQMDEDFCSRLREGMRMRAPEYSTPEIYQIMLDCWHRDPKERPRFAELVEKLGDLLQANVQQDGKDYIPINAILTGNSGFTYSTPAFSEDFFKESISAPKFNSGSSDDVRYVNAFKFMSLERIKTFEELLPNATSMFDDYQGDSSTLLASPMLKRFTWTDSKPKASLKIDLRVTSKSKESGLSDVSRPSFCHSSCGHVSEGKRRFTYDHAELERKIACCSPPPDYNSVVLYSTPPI

- residual activity (PIM1 (human); compound 0.1 µM): 114%
- residual activity (PIM1 (human); compound 1.0 µM): 98%
- residual activity (PIM1 (human); compound 10.0 µM): 65%
- residual activity (MELK (human); compound 0.1 µM): 108%
- residual activity (MELK (human); compound 1.0 µM): 78%
- residual activity (MELK (human); compound 10.0 µM): 40%
- residual activity (FLT1 (human); compound 0.1 µM): 95%
- residual activity (FLT1 (human); compound 1.0 µM): 88%
- residual activity (FLT1 (human); compound 10.0 µM): 68%
- residual activity (CHEK2 (human); compound 0.1 µM): 102%
- residual activity (CHEK2 (human); compound 1.0 µM): 106%
- residual activity (CHEK2 (human); compound 10.0 µM): 88%
- residual activity [1]: 90%
- residual activity (IKBKE (human); compound 0.1 µM): 98%
- residual activity (IKBKE (human); compound 1.0 µM): 87%
- residual activity (IKBKE (human); compound 10.0 µM): 48%
- residual activity (PIM3 (human); compound 0.1 µM): 97%
- residual activity (PIM3 (human); compound 1.0 µM): 58%
- residual activity (PIM3 (human); compound 10.0 µM): 42%
- residual activity (MAP3K7 TAB1 (human); compound 0.1 µM): 94%
- residual activity (MAP3K7 TAB1 (human); compound 1.0 µM): 100%
- residual activity (MAP3K7 TAB1 (human); compound 10.0 µM): 55%
- residual activity (MAPKAPK2 (human); compound 0.1 µM): 99%
- residual activity (MAPKAPK2 (human); compound 1.0 µM): 72%
- residual activity (MAPKAPK2 (human); compound 10.0 µM): 22%
- residual activity (MYLK (human); compound 0.1 µM): 85%
- residual activity (MYLK (human); compound 1.0 µM): 40%
- residual activity (MYLK (human); compound 10.0 µM): 10%
- residual activity (EPHB4 (human); compound 0.1 µM): 103%
- residual activity (EPHB4 (human); compound 10.0 µM): 91%
- residual activity (TAOK1 (human); compound 0.1 µM): 103%
- residual activity (TAOK1 (human); compound 10.0 µM): 53%
- residual activity (IRAK4 (human); compound 0.1 µM): 96%
- residual activity (IRAK4 (human); compound 1.0 µM): 127%
- residual activity (IRAK4 (human); compound 10.0 µM): 92%
- residual activity (MAPK12 (human); compound 0.1 µM): 95%
- residual activity (MAPK12 (human); compound 1.0 µM): 96%
- residual activity (MAPK12 (human); compound 10.0 µM): 58%
- residual activity (EPHB2 (human)): 105%
- residual activity (MAPK14 (human); compound 0.1 µM): 104%
- residual activity (MAPK14 (human); compound 1.0 µM): 116%
- residual activity (MAPK14 (human); compound 10.0 µM): 103%
- residual activity ([2]; compound 0.1 µM): 92%
- residual activity ([2]; compound 1.0 µM): 96%
- residual activity ([2]; compound 10.0 µM): 94%
- residual activity (HIPK2 (human); compound 0.1 µM): 89%
- residual activity (HIPK2 (human); compound 1.0 µM): 125%
- residual activity (HIPK2 (human); compound 10.0 µM): 87%
- residual activity (NEK2 (human); compound 0.1 µM): 111%
- residual activity (NEK2 (human); compound 1.0 µM): 129%
- residual activity (NEK2 (human); compound 10.0 µM): 113%
- residual activity (MARK2 (human); compound 0.1 µM): 97%
- residual activity (MARK2 (human); compound 1.0 µM): 63%
- residual activity (MARK2 (human); compound 10.0 µM): 31%
- residual activity (MARK1 (human); compound 0.1 µM): 51%
- residual activity (MARK1 (human); compound 1.0 µM): 94%
- residual activity (MARK1 (human); compound 10.0 µM): 76%
- residual activity (STK3 (human); compound 0.1 µM): 103%
- residual activity (STK3 (human); compound 1.0 µM): 110%
- residual activity (STK3 (human); compound 10.0 µM): 98%
- residual activity (RPS6KA1 KD1 KD2 (human); compound 0.1 µM): 88%
- residual activity (RPS6KA1 KD1 KD2 (human); compound 1.0 µM): 53%
- residual activity (RPS6KA1 KD1 KD2 (human); compound 10.0 µM): 2%
- residual activity (EPHA2 (human); compound 0.1 µM): 78%
- residual activity (EPHA2 (human); compound 1.0 µM): 99%
- residual activity (EPHA2 (human); compound 10.0 µM): 82%
- residual activity (DAPK1 (human); compound 0.1 µM): 102%
- residual activity (DAPK1 (human); compound 1.0 µM): 93%
- residual activity (DAPK1 (human); compound 10.0 µM): 40%
- residual activity (EPHB1 (human); compound 0.1 µM): 96%
- residual activity (EPHB1 (human); compound 1.0 µM): 111%
- residual activity (EPHB1 (human); compound 10.0 µM): 99%
- residual activity (MAPKAPK5 (human); compound 0.1 µM): 109%
- residual activity (MAPKAPK5 (human); compound 1.0 µM): 97%
- residual activity (MAPKAPK5 (human); compound 10.0 µM): 65%
- residual activity (DYRK2 (human); compound 0.1 µM): 74%
- residual activity (DYRK2 (human); compound 1.0 µM): 29%
- residual activity (DYRK2 (human); compound 10.0 µM): 10%
- residual activity (DYRK3 (human); compound 0.1 µM): 39%
- residual activity (DYRK3 (human); compound 1.0 µM): 14%
- residual activity (DYRK3 (human); compound 10.0 µM): 7%
- residual activity (PKN2 (human); compound 0.1 µM): 96%
- residual activity (PKN2 (human); compound 1.0 µM): 66%
- residual activity (PKN2 (human); compound 10.0 µM): 19%
- residual activity (PRKCA (human); compound 0.1 µM): 97%
- residual activity (PRKCA (human); compound 1.0 µM): 95%
- residual activity (PRKCA (human); compound 10.0 µM): 90%
- residual activity (TTK (human); compound 0.1 µM): 111%
- residual activity (TTK (human); compound 1.0 µM): 87%
- residual activity (TTK (human); compound 10.0 µM): 79%
- residual activity (ROCK2 (rat); compound 0.1 µM): 99%
- residual activity (ROCK2 (rat); compound 10.0 µM): 51%
- residual activity (CLK2 (human); compound 0.1 µM): 78%
- residual activity (CLK2 (human); compound 10.0 µM): 51%
- residual activity (GCK (human); compound 0.1 µM): 41%
- residual activity (GCK (human); compound 1.0 µM): 82%
- residual activity (GCK (human); compound 10.0 µM): 44%
Structure (SMILES): NC(=O)c1cc(-c2ccnc(NC3CCCCC3)c2)nc(N2CCNCC2)c1
